The values below come from ChEMBL document CHEMBL5360532, “Current scenario of quinolone hybrids with potential antibacterial activity against ESKAPE pathogens” (Eur J Med Chem, 2023).

Type in all cases: functional
In assay [1] the test system is Staphylococcus aureus. Briefly: Antibacterial activity against methicillin resistant Staphylococcus aureus assessed as bacterial growth inhibition by two fold microdilution assay. In general terms: Dilution methods test growth across graded concentrations, often in twofold steps.
The subject of assay [2] is Staphylococcus aureus. Description: Antibacterial activity against methicillin sensitive Staphylococcus aureus assessed as bacterial growth inhibition by two fold microdilution assay.
The test system of assay [3] is Escherichia coli. Description: Antibacterial activity against Escherichia coli assessed as bacterial growth inhibition by two fold microdilution assay.
The test system of a further assay is Klebsiella pneumoniae. Description: Antibacterial activity against Klebsiella pneumoniae assessed as bacterial growth inhibition by two fold microdilution assay.
The test system of assay [4] is Staphylococcus aureus. Briefly: Antibacterial activity against Staphylococcus aureus ATCC 29213 assessed as bacterial growth inhibition by broth microdilution assay.
Assay [5] concerns Escherichia coli. Description: Antibacterial activity against Escherichia coli ATCC 25922 assessed as bacterial growth inhibition by broth microdilution assay.
The test system of assay [6] is Staphylococcus aureus. Description: Antibacterial activity against Staphylococcus aureus assessed as bacterial growth inhibition by serial dilution method.
Assay [7] relates to Pseudomonas aeruginosa. Description: Antibacterial activity against Pseudomonas aeruginosa assessed as bacterial growth inhibition by serial dilution method.
Assay [8] relates to Mycolicibacterium smegmatis. Briefly: Antibacterial activity against Mycobacterium smegmatis assessed as bacterial growth inhibition by serial dilution method.
In assay [9] the test system is Staphylococcus aureus. Briefly: Antibacterial activity against Staphylococcus aureus Newman assessed as bacterial growth inhibition by agar diffusion assay. In general terms: A growth-free zone around the sample is the usual read-out of agar diffusion tests.
For assay [10], the system named is Escherichia coli. Description: Antibacterial activity against Escherichia coli DSM-1116 assessed as bacterial growth inhibition by agar diffusion assay.
The subject of assay [11] is Escherichia coli. Description: Antibacterial activity against efflux deficient Escherichia coli TolC assessed as bacterial growth inhibition by agar diffusion assay.
Assay [12] deals with Pseudomonas aeruginosa. Description: Antibacterial activity against efflux deficient Pseudomonas aeruginosa PA14 assessed as bacterial growth inhibition by agar diffusion assay.
Assay [13] has as its system Pseudomonas aeruginosa. Briefly: Antibacterial activity against efflux deficient Pseudomonas aeruginosa DSM-30104 assessed as bacterial growth inhibition by agar diffusion assay.
For another assay, the system named is Proteus mirabilis. Description: Antibacterial activity against efflux deficient Proteus mirabilis DSM-4479 assessed as bacterial growth inhibition by agar diffusion assay.

Converted amounts (≈) assume the structure as drawn.

One may read the MIC as the lowest concentration that inhibits growth of the organism.

Take `O=C(O)c1cn([C@@H]2C[C@@H]2F)c2cc(N3CCN(Cn4nc(-c5ccncc5)n(Cc5ccccc5)c4=S)CC3)c(F)cc2c1=O`: the MIC in the assay on Staphylococcus aureus [1] was 0.5 µg/mL (≈ 0.794 µM); with Staphylococcus aureus [2], 0.5 µg/mL (≈ 0.794 µM); in the assay with Escherichia coli [3], at most 0.003 µg/mL; in the assay with Klebsiella pneumoniae, at most 0.003 µg/mL.
With `O=C(O)c1cn(C2CC2)c2cc(N3CCN(Cc4nc5ccccc5c(=O)[nH]4)CC3)c(F)cc2c1=O`, the MIC came out at 0.031 µg/mL (≈ 0.0633 µM) with Staphylococcus aureus [4] and 0.25 µg/mL (≈ 0.511 µM) with Escherichia coli [5].
Regarding `COC(=O)c1ccc(NC(=O)COC(=O)c2ccncc2)cc1OCCC(=O)NC1CCN(c2c(F)cc3c(=O)c(C(=O)O)cn(C4CC4)c3c2Cl)C1` (stereo not given), the MIC (in the assay on Staphylococcus aureus [6]; in the assay on Pseudomonas aeruginosa [7]; in assay [8]) was 0.125 µg/mL (≈ 0.167 µM) throughout.
Consider `N#Cc1c(-c2ccccc2)nc(SCC(=O)N2CCN(c3cc4c(cc3F)c(=O)c(C(=O)O)cn4C3CC3)CC2)[nH]c1=O`, for which the MIC in the assay on Staphylococcus aureus [9], in the assay on Escherichia coli [10], in the assay on Escherichia coli [11], in the assay on Pseudomonas aeruginosa [12], with Pseudomonas aeruginosa [13] and with Proteus mirabilis was at most 0.03 µg/mL each time.
